In experiment [1] the test system is tert-Keratinocyte (tKC) cell line. The experiment is described as follows: C-map query with the tone composite benchmark signature. To be noted: composite signature of Niacinamide, Sepiwhite, NAG, Hexamidine. It counts as cell-based, human. The method, then:
(§1) Individual experiments (referred to as batches) generally comprise 30 to 96 samples analyzed using Affymetrix GeneChip® technology platforms, containing 6 replicates of the vehicle control (e.g., DSMO), 2 replicate samples of a positive control that gives a strong reproducible effect in the cell type used, and samples of the test material/perturbagen. Replication of the test material is done in separate batches due to batch effects. In vitro testing was performed in 6-well plates to provide sufficient RNA for GeneChip® analysis (2-4 μg total RNA yield/well).
Human telomerized keratinocytes (tKC) were obtained from the University of Texas, Southwestern Medical Center, Dallas, Tex. tKC cells were grown in EpiLife® media with 1× Human Keratinocyte Growth Supplement (Invitrogen, Carlsbad, Calif.) on collagen I coated cell culture flasks and plates (Becton Dickinson, Franklin Lakes, N.J.). Keratinocytes were seeded into 6-well plates at 20,000 cells/cm^2 24 hours before chemical exposure. Human skin fibroblasts (BJ cell line from ATCC, Manassas, Va.) were grown in Eagle's Minimal Essential Medium (ATCC) supplemented with 10% fetal bovine serum (HyClone, Logan, Utah) in normal cell culture flasks and plates (Corning, Lowell, Mass.). BJ fibroblasts were seeded into 6-well plates at 12,000 cells/cm^2 24 hours before chemical exposure. […]

Experiment [2] concerns hyperpigmented spots. The experiment is described as follows: 9-week randomized, double-blind, vehicle-controlled, split-face tone benefit study. The experiment is classed as in vivo, human. As to conditions: 0.05% in SC-99 vehicle, compared to vehicle. The source says:
This Example provides evidence of the advantages of using composite signatures and illustrates clinical affirmation of the C-map model for predicting efficacy of skin-lightening agents. This Example supports embodiments related to composite signatures (as described at the end of Example 3). An illustrative “Skin Tone” Signature developed from a genomics study using a composite skin-lightening benchmark agent signature is derived from Niacinamide, Hexamidine, Sepiwhite, and NAG. The signature is used to query C-map and generate a list of potential skin-lightening agents. A top hit, Chlorhexidine Diactate (CD) is entered into clinical testing for confirmation of efficacy. The control for clinical efficacy is a 5% Niacinamide+1% Sepiwhite formulation in the control vehicle.
Primary endpoints are changes in color spot area fraction (image analysis) and melanin spot area fraction (NC2) from baseline. Secondary endpoints are changes from baseline in L*a*b (color image analysis), mean melanin gray scale (NC2), and melanin evenness (NC2). Texture area fraction and pore area fraction are also evaluated to explore impact on other aspects relating to overall skin tone. […] Statistically significant superiority to the high efficacy benchmark skin active agent to vehicle performance is the clinical success criteria.
Study Design: The experimental protocol included a 9-week (1-week preconditioning & 8-week treatment), randomized, double-blind, round robin, vehicle-controlled, split-face tone benefit study. The subject population included 330 Chinese females, 25-55 years old with hyperpigmented spots. 318 subjects completed the entire study. […] Olay Complete SPF 15 UV Moisturizing Lotion is concomitantly used during pre-conditioning and treatment. 0.5 g each test product per half-face (forehead to jaw line; ˜4 mg/cm^2) is dosed 2× a day (morning/evening). Color SAF and treatment area, Melanin SAF, gray scale, evenness by NC2, and additional measurement of Fine Lines and Wrinkle and Texture are by REAL 3.01A. Data collection points include baseline, and ends of weeks 4, 6 and 8. […]

For experiment [3], the system named is teleomerized human keratinocytes (tKC). Kind of experiment: C-map query with the Retinoic Acid/Keratinocyte 200 benchmark signature. To be noted: Retinoic Acid Keratinocyte RA_200 signature. The experiment is classed as cell-based. The method, then:
as §1
Human telomerized keratinocytes (tKC) were obtained from the University of Texas, Southwestern Medical Center, Dallas, Tex. tKC cells were grown in EpiLife® media with 1× Human Keratinocyte Growth Supplement (Invitrogen, Carlsbad, Calif.) on collagen I coated cell culture flasks and plates (Becton Dickinson, Franklin Lakes, N.J.). Keratinocytes were seeded into 6-well plates at 20,000 cells/cm^2 24 hours before chemical exposure. […]
(a) Tert-keratinocytes (tKC) RA Signatures. […] Cells were treated with 1 uM tRA for 6 hr, tested in triplicate, with triplicate DMSO controls, and analyzed on HG-U133A GeneChips. […]

Turning to `CC(=O)O.CC(=O)O.NC(=N\CCCCCC/N=C(N)/N=C(\N)Nc1ccc(Cl)cc1)/N=C(\N)Nc1ccc(Cl)cc1` [CD, Chlorhexidine Diacetate], in experiment [1], the “connectivity to tone composite benchmark signature query” value is given as “top connectivity hit”. The Basal skin tone entry in experiment [2] (week 8) is reported as “superiority”. Further, the “NC2 Melanin evenness test” value in experiment [2] (weeks 6 and 8) is reported as “superiority to the vehicle”. Besides, the “spot area fraction color test” value in experiment [2] (topical 2x a day, week 8) is given as “significantly fewer spots”.

Consider `CC1=C(/C=C/C(C)=C/C=C/C(C)=C/C(=O)O)C(C)(C)CCC1` [Retinoic acid, all-trans-retinoic acid], for which, in experiment [3], the “average C-map score” value is listed as “highest score”.

Source of the values: patent US10282514B2, “Method of constructing a data architecture” (The Procter & Gamble Company, priority 2012, dated 2019).
